The record followed here is ChEMBL document CHEMBL4177579, “Eudesmane sesquiterpenes from Chinese liverwort are substrates of Cdrs and display antifungal activity by targeting Erg6 and Erg11 of Candida albicans” (Bioorg Med Chem, 2017).

What is called MIC80 is the lowest concentration that inhibits either 80% of growth or 80% of the strains tested, depending on the study.

Data set [1] deals with Candida albicans. Nature of the data set: Antifungal activity against Candida albicans SC5314 incubated for 48 hrs by alamar blue assay. It counts as functional. The conditions noted are these: SC5314, 48 h. Background: Alamar Blue is a resazurin reagent that responds to reducing activity.
For data set [2], the system named is Candida albicans. Nature of the data set: Antifungal activity against CDR1 deficient Candida albicans DSY448 incubated for 48 hrs by alamar blue assay. It is filed as functional. The conditions noted are these: DSY448, 48 h.
The test system of data set [3] is Candida albicans. In words: Antifungal activity against MDR1 deficient Candida albicans DSY465 incubated for 48 hrs by alamar blue assay. It is filed as functional. The conditions noted are these: DSY465, 48 h.
The test system of data set [4] is Candida albicans. In words: Antifungal activity against CDR2 deficient Candida albicans DSY653 incubated for 48 hrs by alamar blue assay. The conditions noted are these: DSY653, 48 h. It is filed as functional.
Data set [5] has as its system Candida albicans. In words: Antifungal activity against CDR1 and CDR2 deficient Candida albicans DSY654 incubated for 48 hrs by alamar blue assay. It counts as functional. The conditions noted are these: DSY654, 48 h.
The test system of data set [6] is Candida albicans. In words: Inhibition of the yeast-to-hyphal transition in CDR1 and CDR2 deficient Candida albicans DSY654 incubated for 5 days grown in liquid RPMI 1640 medium by microphotography. It counts as functional, organism-based.
Data set [7] relates to Candida albicans. Nature of the data set: Inhibition of the yeast-to-hyphal transition in CDR1 and CDR2 deficient Candida albicans DSY654 incubated for 5 days grown in solid SD medium by microphotography. It is filed as functional, organism-based.
For data set [8], the system named is Candida albicans. Nature of the data set: Drug accumulation in CDR1 and CDR2 deficient Candida albicans DSY654 at 16 ug/ml incubated for 10 hrs by HPLC method relative to wild type Candida albicans SC5314. It is filed as ADME, organism-based. The conditions noted are these: in vivo.
For data set [9], the system named is Candida albicans. In words: Drug accumulation in Candida albicans SC5314 at 16 ug/ml incubated for 10 hrs in presence of 16 ug/ml CDR inhibitor RD by HPLC method relative to untreated control. The conditions noted are these: in vivo. It is filed as ADME, organism-based.
The test system of data set [10] is Candida albicans. Nature of the data set: Inhibition of ERG6/ERG11 in CDR1 and CDR2 deficient Candida albicans DSY654 assessed as induction of alteration in sterol composition by measuring ergosterol level at 16 ug/ml incubated for 10 hrs by GC-MS method (reference value: 55.60 +/- 0.29%). More on the design: scale not given: the % may be the effect or the level left.

Data set [11] has as its system Candida albicans. Nature of the data set: Inhibition of ERG6/ERG11 in CDR1 and CDR2 deficient Candida albicans DSY654 assessed as induction of alteration in sterol composition by measuring zymosterol level at 16 ug/ml incubated for 10 hrs by GC-MS method (reference value: 2.78 +/- 0.53%). More on the design: scale not given: the % may be the effect or the level left.

For data set [12], the system named is Candida albicans. In words: Inhibition of ERG6/ERG11 in CDR1 and CDR2 deficient Candida albicans DSY654 assessed as induction of alteration in sterol composition by measuring fecosterol level at 16 ug/ml incubated for 10 hrs by GC-MS method (reference value: 8.36 +/- 0.3%). The arrangement: scale not given: the % may be the effect or the level left.
In data set [13] the test system is Candida albicans. Nature of the data set: Inhibition of ERG6/ERG11 in CDR1 and CDR2 deficient Candida albicans DSY654 assessed as induction of alteration in sterol composition by measuring lanosterol level at 16 ug/ml incubated for 10 hrs by GC-MS method (reference value: 1.63 +/- 0.28%). The arrangement: scale not given: the % may be the effect or the level left.

The subject of data set [14] is Candida albicans. In words: Inhibition of ERG6/ERG11 in CDR1 and CDR2 deficient Candida albicans DSY654 assessed as feedback mechanism based up-regulation of ERG6 mRNA expression at 16 ug/ml incubated for 10 hrs by qPCR method relative to untreated control. (In general: In qPCR the cycle at which signal appears reflects the starting amount.)
For data set [15], the system named is Candida albicans. In words: Inhibition of ERG6/ERG11 in CDR1 and CDR2 deficient Candida albicans DSY654 assessed as feedback mechanism based up-regulation of ERG11 mRNA expression at 16 ug/ml incubated for 10 hrs by qPCR method relative to untreated control.

The structures appear in SMILES notation. ≈ marks a conversion by molar mass, not a printed value.

Turning to `C=C1CCC[C@@]2(C)C[C@@H]3OC(=O)[C@]4(CO4)[C@@H]3C[C@H]12`, the MIC80 in data set [1], in data set [2], in data set [3], in data set [4] and in [5] was over 128 µg/mL throughout.

For the compound `C=C1CCC[C@@]2(C)C[C@@]3(O)OC(=O)C(C)=C3C[C@H]12`, the MIC80 is over 128 µg/mL in [1]; over 128 µg/mL in data set [2]; over 128 µg/mL in [3]; over 128 µg/mL in [4]; 64 µg/mL (≈ 258 µM) in [5].

As to `C=C1CCC[C@@]2(C)C[C@@H]3OC(=O)[C@@](C)(O)[C@@H]3C[C@H]12`, the MIC80 in data set [1] was over 128 µg/mL; in data set [2], over 128 µg/mL; in [3], over 128 µg/mL; in [4], over 128 µg/mL; in [5] it was 32 µg/mL (≈ 128 µM).

For the compound `CC1=CCC[C@@]2(C)C[C@@H]3OC(=O)[C@H](C)[C@@H]3C[C@H]12`, the MIC80 in data set [1], in data set [2], in [3], in [4] and in data set [5] was over 128 µg/mL throughout.

On to `CC1(C)C[C@H](O)C[C@@]2(C)OC(=O)C=C12` [LOLIOLIDE], for which the MIC80 in [1], in data set [2], in [3], in [4] and in [5] was over 128 µg/mL in each case.

With `C=C1CCC[C@@]2(C)C[C@@H]3OC(=O)[C@](CO)(OCC)[C@@H]3C[C@H]12`, the MIC80 in data set [1], in data set [2], in data set [3], in data set [4] and in data set [5] was over 128 µg/mL throughout.

`C=C1CCC[C@@]2(C)C[C@H](O)[C@H](C(=C)C)C[C@H]12`: the MIC80 was over 128 µg/mL in data set [1]; over 128 µg/mL in data set [2]; over 128 µg/mL in data set [3]; over 128 µg/mL in data set [4]; 64 µg/mL (≈ 290 µM) in data set [5].

As to `C=C1CCC[C@@]2(C)C[C@@H]3OC(=O)C(=C)[C@@H]3C[C@H]12`, the MIC80 in data set [1] was over 128 µg/mL; in data set [2], over 128 µg/mL; in data set [3] it was over 128 µg/mL; in [4], over 128 µg/mL; in data set [5], 16 µg/mL (≈ 68.9 µM). For the same compound, the inhibition entry in data set [6] and in data set [7] was “Dose-dependent effect” throughout. The “fold change (FC)” value in data set [8] is 4.95; in data set [9], 10.4; in data set [14] it was 9.3; in [15], 2.7. Besides, the Activity in data set [10] was 33.7%; in data set [11], 10.8%; in data set [12] it was 6.16%; in data set [13], 17.2%.

On to `C=C1CCC[C@@]2(C)C[C@@H]3OC(=O)[C@@H](C)[C@@H]3C[C@H]12`, for which the MIC80 in [1], in data set [2], in [3], in data set [4] and in data set [5] was over 128 µg/mL each time.

For the compound `CC1=CC(=O)C[C@@]2(C)CC[C@](O)(C(C)C)C[C@H]12`, the MIC80 in data set [1], in [2], in data set [3], in data set [4] and in data set [5] was over 128 µg/mL each time.

Take `C=C(CO)[C@H]1CC[C@]2(C)CCCC(=C)[C@H]2[C@H]1O`: the MIC80 in data set [1] was over 128 µg/mL; in data set [2] it was over 128 µg/mL; in [3], over 128 µg/mL; in data set [4], over 128 µg/mL; in data set [5] it was 64 µg/mL (≈ 271 µM).

For `C=C(C)[C@@H]1C[C@@]2(C(C)=O)C[C@@H](O)C[C@@]2(C)C[C@@H]1O`, the MIC80 in data set [1], in data set [2], in [3], in [4] and in [5] was over 128 µg/mL throughout.
